ChEMBL document CHEMBL1134938, “Inhibition of HIV-1 nuclear import via schiff base formation with arylene bis(methylketone) compounds” (Bioorg Med Chem Lett, 2002)

Columns and labels:
[1] = system: Human immunodeficiency virus 1; assay: Concentration required to block the Nuclear translocation of HIV-1 pre-integration complex with Reverse Transcriptase protein; type: functional, organism-based
[2] = system: Human immunodeficiency virus 1; assay: Concentration required to block the Nuclear translocation of HIV-1 pre-integration complex with Reverse Transcriptase protein; NA: Not Active; type: functional, organism-based

IC50 [1] | IC50 [2] | SMILES
100 nM |  | Cc1cc(Nc2cc(C(=O)O)cc(C(=O)O)c2)nc(N)[n+]1C
100 nM |  | CC(=O)c1cc(Nc2cc(C)[n+](C)c(N)n2)cc(C(C)=O)c1
 | Not Active | Cc1cc(Nc2cc(C(C)O)cc(C(C)O)c2)nc(N)[n+]1C (centres undefined)
 | Not Active | COC(=O)c1cc(Nc2cc(C)[n+](C)c(N)n2)cc(C(=O)OC)c1
